{"source": "patent US12370158B2", "about": "“Analogs of CYP-eicosanoids for use in treating or preventing a disorder associated with neovascularization and/or inflammation” (OMEICOS Therapeutics GmbH, priority 2016, dated 2025)", "key": {"[1]": {"system": "HL-1 cells", "experiment": "Viability of LPS-challenged HL-1 cardiomyocytes", "type": "cell-based, mouse", "conditions": "10 nM, 100 nM or 1 μM, 1 μg/mL LPS, 24 h", "experimental": "(§1) A cardiomyocyte cell line was used (mouse derived immortalized cardiomyocytes, HL-1 cells). Cells were either treated with vehicle (0.01% ethanol) or different concentrations of test compound (Comp-02: cE=10 nM, 100 nM or 1 μM). Simultaneously, the cells were challenged with 1 μg/mL lipopolysaccharide (LPS). After 24 h of incubation, the cells were processed to measure viability.\nas §1, with “In order to investigate the anti-inflammatory potential of compounds being part of the invention in vitro, a cardiomyocyte” for “A cardiomyocyte”, “measure viability (FIG. 2) and release of the pro-inflammatory cytokine TNF alpha (FIG. 3).” for “measure viability.”"}, "[2]": {"system": "double transgenic rats (dTGR), renal tissue", "experiment": "Renal inflammation (ED1 macrophage infiltration) in dTGR rat model of severe hypertension and end-organ damage", "type": "in vivo", "conditions": "1.33 mg/kg twice daily by gavage for 21 days, compared to vehicle treated dTGRs", "source_text": "(§2) The aim of this study was to assess and compare the effect of continuous oral treatment of a metabolically robust analog of 17,18-EEQ (Comp-02) or vehicle (isotonic salt solution) on physiological parameters, clinical chemistry and end-organ damage in male double transgenic rats (dTGR). Non-treated Sprague-Dawley rats (SD) of same genetic background were used as control. Double transgenic rats, overexpressing the human renin and angiotensinogen genes, develop severe hypertension and are a model for Ang-II induced end-organ damage with cardiac hypertrophy and kidney failure. Moreover, the dTGR model features severe […], cardiac hypertrophy and nephrosclerosis with marked fibrosis and inflammation.\n(§3) Before start of the experiment the animals were randomly assigned to either compound or vehicle treatment. […] Comp-02 was prepared in 61.6 ppm Na2CO3 and 0.9% NaCl ready to use solution for application, while dTGR animals were dosed twice daily with 0.9% NaCl ready to use solution for vehicle control. […] Samples were analysed using a Zeiss Axioplan-2 imaging microscope with the digital image-processing program AxioVision 4.8. […] Data were expressed as sum of 20 randomly chosen view fields, non-overlapping fields per section. […]"}, "[3]": {"experiment": "Ocular pharmacokinetics of Comp-02 after intravitreal injection in rabbit", "type": "in vivo, pigmented HY79b rabbits", "conditions": "ocular examination with a slit lamp"}, "[4]": {"experiment": "Ocular pharmacokinetics of Comp-02 after oral administration in rabbit", "type": "in vivo, pigmented HY79b rabbits", "conditions": "for Comp-02 content (below lower limit of detection): oral; for Cmax / Tmax / AUC / half-life: male, pigmented HY79b, rabbit; for Cmax: single oral 2 mg/kg (0.2 mg/mL); for Tmax / AUC / half-life: single oral 2 mg/kg; for AUC: read-out: AUC1-48 hours; for half-life: calculated from the Tmax value", "experimental": "(§4) Study design: To gain insight into the distribution behaviour of synthetic 17,18-EEQ-agonists, ocular pharmacokinetic studies were performed in pigmented HY79b rabbits. Briefly, 15 male rabbits per administration route were anesthetized at the time-points for sampling indicated in tables 2-4 by an intramuscular injection of a mixed solution of xylazine and ketamine. Blood collection was performed by cardiac puncture in K3EDTA tubes and centrifuged at 2000 g, 10 min at 4° C. Approximately 3 mL of plasma were sampled, put in plastic tubes, snap frozen in liquid nitrogen and stored at −80° C. until assay. Then animals were euthanized by intracardiac injection of overdosed pentobarbital. This method is one of the recommended methods for euthanasia by the European authorities (French decree No. 2013-118, dated Feb. 1, 2013 publishing the European directive 2010/63/UE. J.Offic. Rp. Fr. 2013; Text 24 out of 130). Immediately after euthanasia, samples from both eyes were quickly and carefully taken, put in plastic tubes, weighed, snap frozen in liquid nitrogen and stored at −80° C. until assay. Content of Comp-02 was determined in ocular samples and plasma following an established RRLCMS/MS method. The results are presented in Tables 5-7 and are expressed as mean values for the different pharmacokinetic parameters. Chromatogram integration was done using MassHunter software. Apparent Cmax and Tmax, T½, AUC1-48 h were calculated by Excel® software. Concentrations were expressed in ng/g or ng/mL of tissue/eye compartment."}, "[5]": {"experiment": "Ocular pharmacokinetics of Comp-02 after topical administration (instillation) in rabbit", "type": "in vivo, pigmented HY79b rabbits", "conditions": "checked by ophthalmoscopy"}, "[6]": {"experiment": "Ocular pharmacokinetics of Comp-02 after topical administration (instillation) in rabbit", "type": "in vivo, pigmented HY79b rabbits", "conditions": "male, pigmented HY79b, topical or ocular, 50 μl of 1 mg/mL in both eyes; for Cmax: single instillation 50 μl (1 mg/mL) in both eyes; for Tmax / half-life / AUC: topical; for half-life: calculated from the Tmax value; for AUC: read-out: AUC1-48 hours", "experimental": "as §4"}, "[7]": {"system": "double transgenic rats (dTGR), cardiac tissue", "experiment": "Cardiac inflammation (ED1 macrophage infiltration) in dTGR rat model of severe hypertension and end-organ damage", "type": "in vivo", "conditions": "1.33 mg/kg twice daily by gavage for 21 days, compared to vehicle treated dTGRs", "source_text": "as §2, §3"}, "[8]": {"experiment": "Ocular pharmacokinetics of Comp-02 after intravitreal injection in rabbit", "type": "in vivo, pigmented HY79b rabbits", "conditions": "for AUC / Tmax / half-life / Cmax: male, pigmented HY79b; for AUC / Tmax / half-life: intravitreal; for AUC: read-out: AUC1-48 hours; for half-life: calculated from the Tmax value; for Cmax: topical or ocular, single vitreal injection of 50 μl (1 mg/mL) in both eyes", "experimental": "as §4"}, "[9]": {"system": "TNF alpha release from the HL-1 cells", "experiment": "TNF alpha release from HL-1 cardiomyocytes", "type": "cell-based, mouse", "conditions": "24 h", "experimental": "as §1, with “release of the pro-inflammatory cytokine TNF alpha.” for “viability.”\nas §1, with “In order to investigate the anti-inflammatory potential of compounds being part of the invention in vitro, a cardiomyocyte” for “A cardiomyocyte”, “measure viability (FIG. 2) and release of the pro-inflammatory cytokine TNF alpha (FIG. 3).” for “measure viability.”"}, "[10]": {"conditions": "other: intravitreal injection, 50 μl of 1 mg/mL in both eyes, vitreous"}, "[11]": {"conditions": "other: intravitreal, 50 µg/eye, choroid"}, "[12]": {"conditions": "other: intravitreal, 50 µg/eye, plasma"}, "[13]": {"conditions": "other: intravitreal, 50 µg/eye, retina"}}}
{"smiles": "CNC(=O)C(=O)NCCCC/C=C\\CCCCCCCOCC(=O)O", "note": "[Comp-02, 2-((13-(2-(methylamino)-2-oxoacetamido)tridec-8(Z)-en-1-yl)oxy)acetic acid]", "values": [{"measurement": "Effect on LPS-induced reduction in cell viability (cytotoxic effect)", "setting": "[1]", "value": "dose-dependently reversed"}, {"measurement": "Macrophage infiltration (ED1 positive cells) in renal tissue", "setting": "[2]", "value": "significant reduction"}, {"measurement": "Macroscopic tolerability of the Comp-02 formulation", "setting": "[3]", "value": "very well tolerated"}, {"measurement": "Comp-02 content (below lower limit of detection)", "setting": "[4]; aqueous humor samples, except for one out of 15 animals", "value": "< 0.1", "unit": "ng/10 μl injected"}, {"measurement": "Cmax", "setting": "[4]; aqueous humor", "value": 8, "unit": "ng/mL"}, {"measurement": "Tmax", "setting": "[4]; aqueous humor", "value": 1, "unit": "h"}, {"measurement": "AUC", "setting": "[4]; aqueous humor", "value": 12, "unit": "ng·h/mL"}, {"measurement": "Cmax", "setting": "[4]; choroid", "value": 246, "unit": "ng/g"}, {"measurement": "Tmax", "setting": "[4]; choroid", "value": 1, "unit": "h"}, {"measurement": "half-life", "setting": "[4]; choroid", "value": 9, "unit": "h"}, {"measurement": "AUC", "setting": "[4]; choroid", "value": 1390, "unit": "ng·h/mL"}, {"measurement": "Cmax", "setting": "[4]; plasma", "value": 1210, "unit": "ng/mL"}, {"measurement": "Tmax", "setting": "[4]; plasma", "value": 1, "unit": "h"}, {"measurement": "half-life", "setting": "[4]; plasma", "value": 6, "unit": "h"}, {"measurement": "AUC", "setting": "[4]; plasma", "value": 6330, "unit": "ng·h/mL"}, {"measurement": "Cmax", "setting": "[4]; retina", "value": 15, "unit": "ng/g"}, {"measurement": "Tmax", "setting": "[4]; retina", "value": 4, "unit": "h"}, {"measurement": "Comp-02 content (below lower limit of detection)", "setting": "[4]; retina samples, except for two out of 15 animals", "value": "< 0.1", "unit": "ng/10 μl injected"}, {"measurement": "Macroscopic tolerability of the Comp-02 formulation", "setting": "[5]", "value": "very well tolerated"}, {"measurement": "Cmax", "setting": "[6]; aqueous humor", "value": 88, "unit": "ng/mL"}, {"measurement": "Tmax", "setting": "[6]; aqueous humor", "value": 1, "unit": "h"}, {"measurement": "half-life", "setting": "[6]; aqueous humor", "value": 1, "unit": "h"}, {"measurement": "AUC", "setting": "[6]; aqueous humor", "value": 324, "unit": "ng·h/mL"}, {"measurement": "Cmax", "setting": "[6]; choroid", "value": 79, "unit": "ng/g"}, {"measurement": "Tmax", "setting": "[6]; choroid", "value": 1, "unit": "h"}, {"measurement": "half-life", "setting": "[6]; choroid", "value": 0.7, "unit": "h"}, {"measurement": "Cmax", "setting": "[6]; plasma", "value": 31, "unit": "ng/mL"}, {"measurement": "Tmax", "setting": "[6]; plasma", "value": 0.5, "unit": "h"}, {"measurement": "half-life", "setting": "[6]; plasma", "value": 5.4, "unit": "h"}, {"measurement": "AUC", "setting": "[6]; plasma", "value": 262, "unit": "ng·h/mL"}, {"measurement": "Cmax", "setting": "[6]; retina", "value": 24, "unit": "ng/g"}, {"measurement": "Tmax", "setting": "[6]; retina", "value": 1, "unit": "h"}, {"measurement": "Macrophage infiltration (ED1 positive cells) in cardiac tissue", "setting": "[7]", "value": "significant reduction"}, {"measurement": "Ocular exposure in the posterior eye, comparison of routes", "setting": "[8]; intravitreal injection compared to oral and topical administration", "value": "highest ocular exposures"}, {"measurement": "AUC", "setting": "[8]; other: intravitreal injection, 50 μl of 1 mg/mL in both eyes, choroid", "value": 63300, "unit": "ng·h/mL"}, {"measurement": "AUC", "setting": "[8]; other: intravitreal injection, 50 μl of 1 mg/mL in both eyes, plasma", "value": 287, "unit": "ng·h/mL"}, {"measurement": "AUC", "setting": "[8]; other: intravitreal injection, 50 μl of 1 mg/mL in both eyes, retina", "value": 79900, "unit": "ng·h/mL"}, {"measurement": "Tmax", "setting": "[8]; [10]", "value": 1, "unit": "h"}, {"measurement": "AUC", "setting": "[8]; [10]", "value": 55400, "unit": "ng·h/mL"}, {"measurement": "Tmax", "setting": "[8]; [11]", "value": 1, "unit": "h"}, {"measurement": "half-life", "setting": "[8]; [11]", "value": 2.4, "unit": "h"}, {"measurement": "Tmax", "setting": "[8]; [12]", "value": 2, "unit": "h"}, {"measurement": "half-life", "setting": "[8]; [12]", "value": 4.2, "unit": "h"}, {"measurement": "Tmax", "setting": "[8]; [13]", "value": 1, "unit": "h"}, {"measurement": "half-life", "setting": "[8]; [13]", "value": 2.6, "unit": "h"}, {"measurement": "half-life", "setting": "[8]; other: intravitreal, 50 µg/eye, vitreous", "value": 4.6, "unit": "h"}, {"measurement": "Cmax", "setting": "[8]; 50 μl of 1 mg/mL in both eyes, choroid", "value": 15000, "unit": "ng/g"}, {"measurement": "Cmax", "setting": "[8]; 50 μl of 1 mg/mL in both eyes, plasma", "value": 19, "unit": "ng/mL"}, {"measurement": "Cmax", "setting": "[8]; 50 μl of 1 mg/mL in both eyes, retina", "value": 10100, "unit": "ng/g"}, {"measurement": "Cmax", "setting": "[8]; 50 μl of 1 mg/mL in both eyes, vitreous", "value": 6650, "unit": "ng/mL"}, {"measurement": "LPS-induced TNF alpha release", "setting": "[9]; 10 nM, 100 nM or 1 μM, 1 μg/mL LPS", "value": "significantly and dose-dependently reduced"}, {"measurement": "Influence on TNF alpha production, compound alone", "setting": "[9]; Comp-02 alone (no LPS)", "value": "did not have an influence"}]}
